Laboratory results from patent US20150141411A1, “SUBSTITUTED 3,4-DIHYDRO-2H-PYRIDO[1,2-A]PYRAZINE-1,6-DIONE DERIVATIVES USEFUL FOR THE TREATMENT OF (INTER ALIA) ALZHEIMER'S DISEASE” (Janssen Pharmaceuticals, Inc., priority 2012, published 2015).
pIC50: −log10 of the molar value.

Assays:
γ-secretase [1] = target: T1, γ-secretase (Homo sapiens, UniProt P49768); assay: Screening for γ-secretase-modulating activity: Aβtotal in supernatant of SKNBE2 cells carrying hAPP 695 wild type (Alphalisa); type: cell-based; conditions: SKNBE2 human neuroblastoma cells carrying hAPP 695 wild type, overnight incubation, Aβtotal in cell supernatant
T1 construct: endogenous in cells; host or cells: SKNBE2 human neuroblastoma cells (carrying hAPP 695 wild type as substrate)
In short: (§1)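 SKNBE2 neuroblastoma cells expressing wild-type hAPP 695 plated at 10^4 cells/well in Ultraculture with test compound, incubated overnight at 37° C. Aβ42 (C-terminal/N-terminal antibody pair) and Aβtotal (N-terminal/4G8 pair) in supernatant quantified by AlphaLISA. IC50 from 4-parameter fit of percent of compound-free control.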

γ-secretase [2] = target: T1, γ-secretase; assay: Screening for γ-secretase-modulating activity: Aβ42 in supernatant of SKNBE2 cells carrying hAPP 695 wild type (Alphalisa); type: cell-based; conditions: SKNBE2 human neuroblastoma cells carrying hAPP 695 wild type, overnight incubation, Aβ42 in cell supernatant
In short: as §1

SMILES	pIC50 (γ-secretase [1])	melting point	pIC50 (γ-secretase [2])
Cc1cn(-c2ccc3n(c2=O)CCN(Cc2cccc(-c4ccc(F)cc4C(F)(F)F)c2)C3=O)cn1 [compound 90]	< 5.00	138 to 143 °C	7.15
Cc1cn(-c2ccc3n(c2=O)CCN(Cc2ccc4c(c2)OCCCO4)C3=O)cn1 [compound 93]	< 5.00	192.2 °C	5.17
Cc1cn(-c2ccc3n(c2=O)CCN(Cc2cccc(N4CCOCC4)c2)C3=O)cn1 [compound 95]	< 5.00	181.6 °C	5.12
Cc1cn(-c2ccc3n(c2=O)CCN(Cc2cccc(N4CCCCC4)c2)C3=O)cn1 [compound 96]	< 5.00	163.6 °C	6.12
Cc1cn(-c2ccc3n(c2=O)CCN(Cc2cccc(N4CCCCC4)c2C)C3=O)cn1 [compound 97]	< 5.00	207.8 °C	6.36
Cc1cn(-c2ccc3n(c2=O)CCN(Cc2ccccc2N2CCCCC2)C3=O)cn1 [compound 100]	< 5.00	167.4 °C	6.12
Cc1cn(-c2ccc3n(c2=O)CCN(Cc2cccc(C4CC4)c2)C3=O)cn1 [compound 101]	< 5.00	121.5 °C	6.13
Cc1cn(-c2ccc3n(c2=O)CCN(c2ccccc2C)C3=O)cn1 [compound 102]	< 5.00	222.2 °C	< 5.00
Cc1cn(-c2ccc3n(c2=O)CCN(CCC2COc4ccccc4O2)C3=O)cn1 (stereo not drawn) [compound 103]	< 5.00	176.8 °C	5.61
Cc1cn(-c2ccc3n(c2=O)CCN(C2CCc4c2cccc4C(F)(F)F)C3=O)cn1 (stereo not drawn) [compound 105]	< 5.00	253.5 °C	5.55
Cc1cn(-c2ccc3n(c2=O)CCN(C2CCCc4ccc(C(F)(F)F)cc42)C3=O)cn1 (stereo not drawn) [compound 106]	< 5.00	189.4 °C	6.14
Cc1cn(-c2ccc3n(c2=O)CCN(C2CCCc4c2cccc4C(F)(F)F)C3=O)cn1 (stereo not drawn) [compound 107]	< 5.00	257.3 °C	5.61
Cc1cn(-c2ccc3n(c2=O)C[C@@H](C)N(Cc2ccc4c(c2)OC(F)(F)O4)C3=O)cn1 [compound 113]	< 5.00	136.1 °C	6.40
Cc1cn(-c2ccc3n(c2=O)C[C@@H](C)N(Cc2ccc4scc(Br)c4c2)C3=O)cn1 [compound 115]	< 5.00	101.4 °C	6.85
COc1cccc(CN2CCn3c(ccc(-n4cnc(C)n4)c3=O)C2=O)c1 [compound 119]	< 5.00	151.2 °C	< 5.00
Cc1ncn(-c2ccc3n(c2=O)CCN(Cc2cccc(C(F)(F)F)c2)C3=O)n1 [compound 120]	< 5.00	194.9 °C	5.21
Cc1cn(-c2ccc3n(c2=O)CCCN(Cc2ccc(Cl)c(Cl)c2)C3=O)cn1 [compound 121]	< 5.00	173.4 °C	6.42
Cc1cn(-c2ccc3n(c2=O)C[C@@H](C)N(Cc2ccccc2)C3=O)cn1 [compound 124]	< 5.00	136.5 °C	5.63

SMILES	pIC50 (γ-secretase [1])	melting point	pIC50 (γ-secretase [2])
Cc1cn(-c2ccc3n(c2=O)C[C@@H](C)N(Cc2cc(Cl)cc(Cl)c2)C3=O)cn1 [compound 131]	< 5.00	170.7 °C	6.70
Cc1ncn(-c2ccc3n(c2=O)CC(C)N(Cc2cc(C(F)(F)F)cc(C(F)(F)F)c2)C3=O)n1 (stereo not drawn) [compound 155]	< 5.00	160.9 °C	6.29
Cc1cn(-c2c(Br)cc3n(c2=O)C[C@@H](C)N(Cc2cc(C(F)(F)F)cc(C(F)(F)F)c2)C3=O)cn1 [compound 157]	5.06	147.7 °C	5.69
Cc1cn(-c2ccc3n(c2=O)CCN(Cc2cc(OC(C)C)cc(C(F)(F)F)c2)C3=O)cn1 [compound 160]	< 5.00	171.7 °C	6.72
Cc1cn(-c2ccc3n(c2=O)CCN(C(C)c2cc(F)cc(C(F)(F)F)c2)C3=O)cn1 (stereo not drawn) [compound 168]	< 5.00	225.6 °C	5.85
Cc1cn(-c2ccc3n(c2=O)CCN(C(C)Cc2cc(C(F)(F)F)cc(C(F)(F)F)c2)C3=O)cn1 (stereo not drawn) [compound 172]	< 5.00	182.3 °C	6.60
Cc1cn(-c2ccc3n(c2=O)C[C@@H](C)N(Cc2cn(C)c4cc(F)c(Cl)cc24)C3=O)cn1 [compound 196]	5.13	187 °C	7.70
Cc1cn(-c2ccc3n(c2=O)C[C@@H](C)N(Cc2cn(C(C)C)c4cc(Br)ccc24)C3=O)cn1 [compound 200]	< 5.00	181 °C	7.70
Cc1cn(-c2ccc3n(c2=O)C[C@@H](C)N(Cc2cn(C)c4cc(C(F)(F)F)ccc24)C3=O)cn1 [compound 228]	< 5.00	161 °C	7.30
Cc1cn(-c2ccc3n(c2=O)C[C@@H](C)N(CCc2cccc(C(F)(F)F)c2C)C3=O)cn1 [compound 229]	< 5.00	129 °C	6.89
Cc1cn(-c2ccc3n(c2=O)C[C@@H](C)N(CCc2cc(Cl)ccc2Cl)C3=O)cn1 [compound 230]	< 5.00	192 °C	6.68
Cc1cn(-c2ccc3n(c2=O)C[C@@H](C)N(CCc2cc(C(F)(F)F)ccc2F)C3=O)cn1 [compound 232]	< 5.00	148 °C	6.68
COc1ccc(Cl)cc1CCN1C(=O)c2ccc(-n3cnc(C)c3)c(=O)n2C[C@H]1C [compound 233]	< 5.00	193 °C	6.59
CCn1cc(CN2C(=O)c3ccc(-n4cnc(C)c4)c(=O)n3C[C@H]2C)c2cc(OC)c(Cl)cc21 [compound 251]	5.22	150 °C	7.70
Cc1cn(-c2ccc3n(c2=O)CCN(Cc2cn(C)c4cc(Cl)c(Cl)cc24)C3=O)cn1 [compound 254]	5.22	217 °C	7.70
Cc1cn(-c2ccc3n(c2=O)C[C@@H](C)N(Cc2cn(C)c4cc(Cl)c(Cl)cc24)C3=O)cn1 [compound 255]	5.52	265 °C	8.00
Cc1cn(-c2ccc3n(c2=O)CCN(Cc2cn(C)c4c(Cl)cc(Cl)cc24)C3=O)cn1 [compound 259]	5.22	230 °C	7.70
